Laboratory results taken from patent US20060211698A1, “Bicyclic heteroaryl derivatives for treating viruses” (Genelabs, Inc., priority 2005, published 2006).

Target: T1, HCV-NS5b (Hepatitis C virus genotype 1b, UniProt Q9WMX2)
T1 construct: The cloned fragment was missing the C terminus 21 amino acid residues; (His)6 (C); made in house; host or cells: XL-1 cells (E. coli)
Assay: HCV-NS5b Enzyme Assay
Format: biochemical
Conditions: 1 μM test compound; incorporation of [3H]-UTP, 37° C., 2 hours
Procedure, shortened: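 The NS5B construct lacks its C-terminal 21 residues, carries a C-terminal His6 tag and was expressed in E. coli. [^3H]-UTP incorporation on a biotinylated HCV heteropolymeric template (10 ng/μL) with 10 μM each NTP, pH 7.5, 5 mM MgCl2 and 5% DMSO ran 2 h at 37° C and was read by SPA scintillation. IC50s came from 10-point 2-fold series starting at 50 or 2 μM.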

inhibition at 1 µM | SMILES
102% | COc1ccccc1-c1ccc(-c2c(C3CCCCC3)c3ccc(C(=O)O)cc3n2CC(=O)N2CCOCC2)cc1 [Compound 311, 3-Cyclohexyl-2-(2′-methoxy-biphenyl-4-yl)-1-(2-morpholin-4-yl-2-oxo-ethyl)-1H-indole-6-carboxylic acid]
99.5% | Cc1cccc(-c2ccc(-c3c(C4CCCCC4)c4ccc(C(=O)O)cc4n3CC(=O)N3CCOCC3)cc2)c1 [Compound 312, 3-Cyclohexyl-2-(3′-methyl-biphenyl-4-yl)-1-(2-morpholin-4-yl-2-oxo-ethyl)-1H-indole-6-carboxylic acid]
99.6% | Cc1ccccc1-c1ccc(-c2c(C3CCCCC3)c3ccc(C(=O)O)cc3n2CC(=O)N2CCOCC2)cc1 [Compound 313, 3-Cyclohexyl-2-(2′-methyl-biphenyl-4-yl)-1-(2-morpholin-4-yl-2-oxo-ethyl)-1H-indole-6-carboxylic acid]
98% | C=Cc1ccc(-c2ccc(-c3c(C4CCCCC4)c4ccc(C(=O)O)cc4n3CC(=O)N3CCOCC3)cc2)cc1 [Compound 314, 3-Cyclohexyl-1-(2-morpholin-4-yl-2-oxo-ethyl)-2-(4′-vinyl-biphenyl-4-yl)-1H-indole-6-carboxylic acid]
95.8% | Nc1cccc(-c2ccc(-c3c(C4CCCCC4)c4ccc(C(=O)O)cc4n3CC(=O)N3CCOCC3)cc2)c1 [Compound 315, 2-(3′-Amino-biphenyl-4-yl)-3-cyclohexyl-1-(2-morpholin-4-yl-2-oxo-ethyl)-1H-indole-6-carboxylic acid]
101% | Cc1ccc(-c2ccc(-c3c(C4CCCCC4)c4ccc(C(=O)O)cc4n3CC(=O)N3CCOCC3)cc2)s1 [Compound 316, 3-Cyclohexyl-2-[4-(5-methyl-thiophen-2-yl)-phenyl]-1-(2-morpholin-4-yl-2-oxo-ethyl)-1H-indole-6-carboxylic acid]
96.7% | Cc1noc(C)c1-c1ccc(-c2c(C3CCCCC3)c3ccc(C(=O)O)cc3n2CC(=O)N2CCOCC2)cc1 [Compound 317, 3-Cyclohexyl-2-[4-(3,5-dimethyl-isoxazol-4-yl)-phenyl]-1-(2-morpholin-4-yl-2-oxo-ethyl)-1H-indole-6-carboxylic acid]
98.1% | O=C(O)c1ccc2c(C3CCCCC3)c(-c3ccc(-c4ccc(Cl)s4)cc3)n(CC(=O)N3CCOCC3)c2c1 [Compound 318, 2-[4-(5-Chloro-thiophen-2-yl)-phenyl]-3-cyclohexyl-1-(2-morpholin-4-yl-2-oxo-ethyl)-1H-indole-6-carboxylic acid]
74.3% | Cc1nc(C)c(-c2ccc3cc(-c4c(C5CCCCC5)c5ccc(C(=O)O)cc5n4CC(=O)N4CCOCC4)cnc3n2)s1 [Compound 319, 3-Cyclohexyl-2-[7-(2,4-dimethyl-thiazol-5-yl)-[1,8]naphthyridin-3-yl]-1-(2-morpholin-4-yl-2-oxo-ethyl)-1H-indole-6-carboxylic acid]
84.1% | Cc1nc(C)c(-c2nc3ccc(-c4c(C5CCCCC5)c5ccc(C(=O)O)cc5n4CC(=O)N4CCOCC4)cc3[nH]2)s1 [Compound 320, 3-Cyclohexyl-2-[2-(2,4-dimethyl-thiazol-5-yl)-3H-benzoimidazol-5-yl]-1-(2-morpholin-4-yl-2-oxo-ethyl)-1H-indole-6-carboxylic acid]
98.2% | Cc1cccc(-c2ccc3cc(-c4c(C5CCCCC5)c5ccc(C(=O)O)cc5n4CC(=O)N4CCOCC4)ccc3c2)c1 [Compound 321, 3-Cyclohexyl-1-(2-morpholin-4-yl-2-oxo-ethyl)-2-(6-m-tolyl-naphthalen-2-yl)-1H-indole-6-carboxylic acid]
95.1% | O=C(O)c1ccc2c(C3CCCCC3)c(-c3ccc4cc(-c5ccccc5F)ccc4c3)n(CC(=O)N3CCOCC3)c2c1 [Compound 322, 3-Cyclohexyl-2-[6-(2-fluoro-phenyl)-naphthalen-2-yl]-1-(2-morpholin-4-yl-2-oxo-ethyl)-1H-indole-6-carboxylic acid]
97.6% | Cc1nc(C)c(C2CCc3cc(-c4c(C5CCCCC5)c5ccc(C(=O)O)cc5n4CC(=O)N4CCOCC4)ccc3N2)s1 (centres unmarked) [Compound 323, 3-Cyclohexyl-2-[2-(2,4-dimethyl-thiazol-5-yl)-1,2,3,4-tetrahydro-quinolin-6-yl]-1-(2-morpholin-4-yl-2-oxo-ethyl)-1H-indole-6-carboxylic acid]
93.6% | O=C(O)c1ccc2c(C3CCCCC3)c(-c3ccc4nc(-c5ccncc5)ccc4c3)n(CC(=O)N3CCOCC3)c2c1 [Compound 325, 3-Cyclohexyl-1-(2-morpholin-4-yl-2-oxo-ethyl)-2-(2-pyridin-4-yl-quinolin-6-yl)-1H-indole-6-carboxylic acid]
99.8% | O=C(O)c1ccc2c(C3CCCCC3)c(-c3ccc(-c4ccc5ccccc5n4)cc3)n(CC(=O)N3CCOCC3)c2c1 [Compound 326, 3-Cyclohexyl-1-(2-morpholin-4-yl-2-oxo-ethyl)-2-(4-quinolin-2-yl-phenyl)-1H-indole-6-carboxylic acid]
96.3% | O=C(O)c1ccc2c(C3CCCCC3)c(-c3ccc4ncc(-c5ccccc5)cc4c3)n(CC(=O)N3CCOCC3)c2c1 [Compound 327, 3-Cyclohexyl-1-(2-morpholin-4-yl-2-oxo-ethyl)-2-(3-phenyl-quinolin-6-yl)-1H-indole-6-carboxylic acid]
101% | O=C(O)c1ccc2c(C3CCCCC3)c(-c3ccc4cc(-c5ccccc5)ccc4c3)n(CC(=O)N3CCOCC3)c2c1 [Compound 328, 3-Cyclohexyl-1-(2-morpholin-4-yl-2-oxo-ethyl)-2-(6-phenyl-naphthalen-2-yl)-1H-indole-6-carboxylic acid]
99.8% | O=C(O)c1ccc2c(C3CCCCC3)c(-c3ccc4ncc(-c5ccccc5)nc4c3)n(CC(=O)N3CCOCC3)c2c1 [Compound 329, 3-Cyclohexyl-1-(2-morpholin-4-yl-2-oxo-ethyl)-2-(3-phenyl-quinoxalin-6-yl)-1H-indole-6-carboxylic acid]
96.8% | O=C(O)c1ccc2c(C3CCCCC3)c(-c3ccc4nc(-c5ccccc5)cnc4c3)n(CC(=O)N3CCOCC3)c2c1 [Compound 330, 3-Cyclohexyl-1-(2-morpholin-4-yl-2-oxo-ethyl)-2-(2-phenyl-quinoxalin-6-yl)-1H-indole-6-carboxylic acid]
97% | O=C(O)c1ccc2c(C3CCCCC3)c(-c3ccc4nc(-c5cncs5)ccc4c3)n(CC(=O)N3CCOCC3)c2c1 [Compound 331, 3-Cyclohexyl-1-(2-morpholin-4-yl-2-oxo-ethyl)-2-(2-thiazol-5-yl-quinolin-6-yl)-1H-indole-6-carboxylic acid]
100% | O=C(O)c1ccc2c(C3CCCCC3)c(-c3ccc(-c4ccccc4)cc3)n(CC(=O)N3CCOCC3)c2c1 [Compound 332, 2-Biphenyl-4-yl-3-cyclohexyl-1-(2-morpholin-4-yl-2-oxo-ethyl)-1H-indole-6-carboxylic acid]
95.1% | Cc1nc(C)c(-c2ccc3cc(-c4[nH]c5cc(C(=O)O)ccc5c4C4CCCCC4)ccc3n2)s1 [Compound 333, 3-Cyclohexyl-2-[2-(2,4-dimethyl-thiazol-5-yl)-quinolin-6-yl]-1H-indole-6-carboxylic acid]
86.9% | Cc1nc(C)c(-c2ccc3cc(-c4[nH]c5c(C)c(C(=O)O)ccc5c4C4CCCCC4)ccc3n2)s1 [Compound 334, 3-Cyclohexyl-2-[2-(2,4-dimethyl-thiazol-5-yl)-quinolin-6-yl]-7-methyl-1H-indole-6-carboxylic acid]
